Experimental data from PMC6743422, “Preclinical disposition of MGS0274 besylate, a prodrug of a potent group II metabotropic glutamate receptor agonist MGS0008 for the treatment of schizophrenia” (Pharmacology Research & Perspectives, 2019).
Entries after “also recorded” stand apart in the source; their conditions may differ.

What was measured:
[1] = system: phencyclidine-induced locomotor hyperactivity; settings: rat, oral 3 mg/kg; cited from earlier work
[2] = Pharmacokinetics after oral MGS0274 besylate in monkeys; assay type: in vivo, cynomolgus monkey; settings: fed male monkeys, MGS0274 besylate oral 2.89 mg/kg
Protocol: The pharmacokinetic profiles of MGS0008 and MGS0274 were investigated in fasted male Wistar rats (n = 3) and fed male cynomolgus monkeys (n = 4). Monkeys had been given 60 g of a primate diet (PS‐A; Oriental Yeast, Tokyo, Japan) one hour before administration. For intravenous administration, MGS0008 was dissolved in saline (pH7.4) and administered to rats (3 mg/kg) and monkeys (1 mg/kg). Blood samples were collected from the tail vein (rats) or the forelimb cephalic vein (monkeys) into tubes containing EDTA‐2K at 5, 15, and 30 minutes and at 1, 2, 4, 8, and 24 hours postdose for both species, and an additional sample was collected at 12 hours postdose for monkeys. Urine samples were collected until 48 hours at 24‐hour intervals (rats) or at 0‐ to 8‐hour, 8‐ to 24‐hour, and 24‐ to 48‐hour intervals (monkeys). The plasma or urine samples was mixed with acetonitrile/methanol (9:1, v/v) containing [^13C2 ^15N]MGS0008 and centrifuged. Aliquots of the supernatant were subjected to bioanalysis using LC‐MS/MS (see Table S1‐E). For oral administration, MGS0008 was dissolved in distilled water (rats) or 0.5% w/v methylcellulose 400 (monkeys) and administered to rats (3 mg/kg) and monkeys (1 mg/kg). MGS0274 besylate was suspended in 0.5% w/v methylcellulose 400 containing 0.1% v/v Tween 80 and administered to monkeys at a dose of 2.89 mg/kg (1‐mg equivalent of MGS0008/kg). Blood samples were collected from the tail vein (rats) or the forelimb cephalic vein (monkeys) into tubes containing EDTA‐2K at 30 minutes, 1, 1.5, 2, 4, 6, 8, and 24 hours postdose for rats, and 30 minutes, 1, 2, 4, 8, 12, and 24 hours postdose for monkeys. The plasma samples were mixed with acetonitrile/methanol (9:1, v/v) containing internal standards ([^13C2 ^15N]MGS0008 and MGS0039) and centrifuged. Aliquots of the supernatant were subjected to bioanalysis using LC‐MS/MS (see Tables S1‐E and F). In the study examining the tissue distribution of MGS0008 in rats (3 mg/kg), blood samples were collected from the posterior vena cava into tubes containing EDTA‐2K under isoflurane anesthesia at 1.5, 4, 6, or 24 hours postdose. Then, the animals were euthanized by exsanguination from the abdominal aorta; cerebrospinal fluid (CSF) samples were drawn from the spinal cord space in each animal. The plasma or CSF was mixed with acetonitrile/methanol (9:1, v/v) containing [^13C2 ^15N]MGS0008 and centrifuged. Aliquots of the supernatant were subjected to bioanalysis using LC‐MS/MS (see Table S1‐E). The plasma concentration‐time profiles of MGS0008 and MGS0274 were analyzed using a non‐compartmental analysis method with pharmacokinetic analysis software Phoenix® WinNonlin® 6.2 or later (Certara, Princeton, NJ).

[3] = cynomolgus monkey, plasma, compound monitored MGS0274, mean of two animals

| Cmax [2, 3] | Tmax [2, 3] | AUC(0-t) ([2]; cynomolgus monkey, plasma, compound monitored MGS0274, mean of two animals, read-out: AUC0–24h of MGS0274) | SMILES | phencyclidine-induced locomotor hyperactivity [1] | vomiting [2] | MGS0274 in plasma ([2]; lower limit of quantification 1 ng/mL, 2.89 mg/kg) |
| --- | --- | --- | --- | --- | --- | --- |
|  |  |  | N[C@]1(C(=O)O)[C@H]2[C@@H](C[C@@H]1F)[C@@H]2C(=O)O [MGS0008, (1S,2S,3S,5R,6S)‐2‐amino‐3‐fluorobicyclo[3.1.0]hexane‐2,6‐dicarboxylic acid] | inhibited; also recorded: significantly decreased |  |  |
| 1.28 ng/mL | 1 h | 2.03 ng·h/mL | CC(C)[C@@H]1CC[C@@H](C)C[C@H]1OC(=O)O[C@@H](C)OC(=O)[C@H]1[C@@H]2C[C@H](F)[C@@](N)(C(=O)O)[C@@H]21.O=S(=O)(O)c1ccccc1 [MGS0274 besylate, (1S,2S,3S,5R,6S)‐2‐amino‐3‐fluoro‐6‐({(1S)‐1‐[({[(1R,2S,5R)‐5‐methyl‐2‐(propan‐2‐yl)cyclohexyl]oxy}carbonyl)oxy]ethoxy}carbonyl)bicyclo[3.1.0]hexane‐2‐carboxylic acid monobenzenesulfonate] |  | two of the four monkeys experienced vomiting | barely detectable; also recorded: barely detected |
